Data on 1 substance can be found in patent US6818215B2, “Antibodies to senescent cell-derived inhibiters of DNA synthesis” (priority 1991, dated 2004).

One assay has as its system C33A (HTB 31). Description: DNA synthesis inhibition by SDI-1 in pRb-deficient cells. The format is cell-based, human. Here is the method: Because SDI-1 inhibits the protein kinases that phosphorylate pRb, and unphosphorylated pRb is believed to negatively regulate E2F activity (Nevins, J. R., Science 258:424-429 (1992)), pRb is presumed to be a central mediator of SDI-1's effects. Since A31 cells express a normal Rb gene, the ability of SDI-1 to inhibit E2F activity, and possibly growth, in tumor cells that lack a functional pRb was tested. […] C33A cells were obtained from the American Type Culture Collection (Rockville, Md.).
By contrast, C33A and A31 cells were equally sensitive to SDI-1 inhibition of E2F activity. Thus, CMV-SDI-1 reduced DHFR-, cdc2- and SV/E2F-driven CAT activity to approximately equal extents in C33A and A31 cells. As expected CMV-SDI-1 had no effect on SV/E2Fm-driven CAT activity in either cell line.

The test system of assay [1] is SV40 early promoter with mutant E2F binding sites (SV/E2Fm). In words: CAT reporter transcription assay, SV/E2Fm-CAT. The format is cell-based. As to conditions: A31 cells. As for the experimental part: The effect of the human SDI-1 on transcription driven by two E2F-responsive promoters was determined. Proliferating A31 cells were transfected with an SDI-1 expression vector in which the SDI-1 cDNA was driven by the strong constitutive cytomegalovirus early promoter (CMV) together with a reporter vector in which the chloramphenicol acetyltransferase (CAT) gene was driven by either the hamster dihydrofolate reductase (DHFR) promoter or the human cdc2 promoter (cdc2-CAT). A31 cells are Balb/c murine 3T3 fibroblasts whose origin and growth properties have been described (Lu, K. et al., Molec. Cell. Biol. 9:3411-3417 (1989); Dimri, G. P et al., J. Biol. Chem. 269:16180-16186 (1994), herein incorporated by reference). Cells were transfected with 2 μg of expression vectors, reporters vectors (for transactivation) and the CMV-β-gal identification/normalization vector using Lipofectamine (Gibco-BRL), as described by Dimri, G. P et al. (J. Biol. Chem. 269:16180-16186 (1994), herein incorporated by reference), The vector backbone was added to the mixture as needed to equalize the amount of transfected DNA. […]
To more critically ascertain whether the inhibition of transcription by SDI-1 was E2F-dependent, three E2F binding sites were inserted into the SV40 early promoter and the effect of CMV-SDI-1 on CAT activity driven by this modified promoter (SV/E2F) was determined. […]

Another assay deals with SV 40 early promoter. In words: CAT reporter transcription assay, SV-CAT. The format is cell-based. As for the experimental part:
The effect of the human SDI-1 on transcription driven by two E2F-responsive promoters was determined. Proliferating A31 cells were transfected with an SDI-1 expression vector in which the SDI-1 cDNA was driven by the strong constitutive cytomegalovirus early promoter (CMV) together with a reporter vector in which the chloramphenicol acetyltransferase (CAT) gene was driven by either the hamster dihydrofolate reductase (DHFR) promoter or the human cdc2 promoter (cdc2-CAT). A31 cells are Balb/c murine 3T3 fibroblasts whose origin and growth properties have been described (Lu, K. et al., Molec. Cell. Biol. 9:3411-3417 (1989); Dimri, G. P et al., J. Biol. Chem. 269:16180-16186 (1994), herein incorporated by reference). Cells were transfected with 2 μg of expression vectors, reporters vectors (for transactivation) and the CMV-β-gal identification/normalization vector using Lipofectamine (Gibco-BRL), as described by Dimri, G. P et al. (J. Biol. Chem. 269:16180-16186 (1994), herein incorporated by reference), The vector backbone was added to the mixture as needed to equalize the amount of transfected DNA. Seventy-two hours later, the cells were lysed and assayed for chloramphenicol acetyl transferase (CAT) and β-galactosidase activity. Both DHFR and cdc2 were expressed by proliferating cells, largely due to E2F-mediated transcription that is dependent on E2F binding sites in the 5′ regulatory regions of these genes (Slansky, J. E. et al., Molec. Cell. Biol. 13:1610-1618 (1993); Dalton, S., EMBO J. 11:1797-1804 (1992)).
In sharp contrast to the response of the DHFR and cdc2 promoters, CMV-SDI-1 had little or no effect on reporter activity driven by either the SV 40 early promoter (SV-CAT or the c-fos promoter (fos-CAT) (Table 16). Neither the SV40 early genes nor c-fos has been reported to be E2F-responsive.

Assay [2] has as its system Human umbilical vein endothelial cells. In words: GST-SDI-1 fusion protein, thymidine incorporation. The class given is cell-based. As for the experimental part:
As indicated above, SDI-1 has the capacity to suppress the proliferation of tumor cells. […] In the experiment, 5×10^3 cells were plated overnight at 37° C. (only for adherent cells) and then incubated with the SDI fusion protein. After 48 hours at 37° C., cells were pulsed with thymidine for 24 hours and then harvested. The results of this experiment are shown in Table 8; the thymidine incorporation by untreated cells was expressed as 100%. all determinations were made in quadruplicate.

A further assay deals with T1, cdk2 protein (Homo sapiens, UniProt P24941).
T1 construct: host or cells: baculovirus expression system
In words: Binding of in vitro translated SDI-1 deletion mutants to purified cdk2, anti-cdk2 immunoprecipitation. As to conditions: 45 μl translation product, 1 ug cdk2, 4° C. Here is the method:
To determine whether the DNA synthesis inhibition caused by these mutants was occurring through inhibition of cdk kinases, the binding of in vitro translated deletion mutant proteins products with purified cdk2protein was examined. Thus, the various deletion mutants of SDI-1 were translated in reticulocyte lysates (Promega) using pBluescript based plasmids as transcription templates for the T7 RNA polymerase. For in vitro binding, 45 μl of the translation product was added to 500 μl binding buffer (50 mM Tris/HCl, pH 7.5, 120 mM NaCl, 2 mM EDTA, 0.1% NP-40, 1 mM NaF, 0.1 m.M sodium vanidate, 5 μg/ml leupeptin, 5 μg/ml soybean trypsin inhibitor, 5 μg/ml aprotinin) containing 1 ug cdk2 protein purified from a bacculovirus expression system. The mixture was gently rocked for 1 hour at 4° C. and then 7.5 μg anti-cdk2 rabbit polyclonal antibody was added. Mixing was continued for 1 hour at 4° C. The immunocomplex was absorbed by incubation with 40 μl protein G plus A beads for 2 hr. The matrices were then washed three times with 0.5 ml of binding buffer prior to electrophoresis and autoradiography.

The % Inhibition is the relative decrease from the control value, in per cent. As to “SDI-1: senescent cell derived inhibitor of DNA synthesis, 164 amino acid protein, SEQ ID NO:2”, the “inhibition (antiproliferative effect)” value with C33A (HTB 31) was 40-50%. Besides, in assay [1], the “Transcription (Normalized) % Activity” value is given as 93% and the “Transcription (Normalized) % Inhibition” value amounted to 7%. In addition, in the assay on SV 40 early promoter (SDI-1 1.0 μg), the “% Activity” value came to 103%, the “% Inhibition” value is listed as 0% and the “Normalized CAT Activity” value is reported as 3743 counts per minute. In addition, in the assay with SV 40 early promoter (SDI-1 2.0 μg), the “% Activity” value came out at 106%, the “% Inhibition” value is on record as 0% and the “Normalized CAT Activity” value worked out at 3828 counts per minute. In the assay on SV 40 early promoter (SDI-1 4.0 μg), the “% Activity” value came out at 93%, the “% Inhibition” value stood at 7% and the “Normalized CAT Activity” value is 3366 counts per minute. The “Relative Cell (% of Control)” value in assay [2] (30 μg/ml) is on record as 5 ± 1 % of Control. The “Relative Cell (% of Control)” value in assay [2] (50 μg/ml) is 2 ± 1 % of Control. Besides, the “binding to purified cdk2 protein” value in the assay with cdk2 protein is “bound cdk2 protein efficiently”.
